Test results published in paper PMC7026418, “The kinase polypharmacology landscape of clinical PARP inhibitors” (Scientific Reports, 2020).
Where two headings read alike, the source gives them in different places.

What was measured:
Test in all cases: biochemical
Parameters in all cases: DiscoveRx KINOMEscan active site-directed competition binding; percent of control kinase bound to immobilised ligand
[1] = target: VRK2 (Homo sapiens, UniProt Q86Y07)
[2] = target: CDK7 (Homo sapiens, UniProt P50613)
[3] = target: T1, PCTK2 (Homo sapiens, UniProt Q00537)
T1 construct: gene CDK17

[4] = target: CAMK1D (Homo sapiens, UniProt Q8IU85)
[5] = target: T2, EPHB6 (Homo sapiens, UniProt O15197)
T2 sequence (O15197 1-1021): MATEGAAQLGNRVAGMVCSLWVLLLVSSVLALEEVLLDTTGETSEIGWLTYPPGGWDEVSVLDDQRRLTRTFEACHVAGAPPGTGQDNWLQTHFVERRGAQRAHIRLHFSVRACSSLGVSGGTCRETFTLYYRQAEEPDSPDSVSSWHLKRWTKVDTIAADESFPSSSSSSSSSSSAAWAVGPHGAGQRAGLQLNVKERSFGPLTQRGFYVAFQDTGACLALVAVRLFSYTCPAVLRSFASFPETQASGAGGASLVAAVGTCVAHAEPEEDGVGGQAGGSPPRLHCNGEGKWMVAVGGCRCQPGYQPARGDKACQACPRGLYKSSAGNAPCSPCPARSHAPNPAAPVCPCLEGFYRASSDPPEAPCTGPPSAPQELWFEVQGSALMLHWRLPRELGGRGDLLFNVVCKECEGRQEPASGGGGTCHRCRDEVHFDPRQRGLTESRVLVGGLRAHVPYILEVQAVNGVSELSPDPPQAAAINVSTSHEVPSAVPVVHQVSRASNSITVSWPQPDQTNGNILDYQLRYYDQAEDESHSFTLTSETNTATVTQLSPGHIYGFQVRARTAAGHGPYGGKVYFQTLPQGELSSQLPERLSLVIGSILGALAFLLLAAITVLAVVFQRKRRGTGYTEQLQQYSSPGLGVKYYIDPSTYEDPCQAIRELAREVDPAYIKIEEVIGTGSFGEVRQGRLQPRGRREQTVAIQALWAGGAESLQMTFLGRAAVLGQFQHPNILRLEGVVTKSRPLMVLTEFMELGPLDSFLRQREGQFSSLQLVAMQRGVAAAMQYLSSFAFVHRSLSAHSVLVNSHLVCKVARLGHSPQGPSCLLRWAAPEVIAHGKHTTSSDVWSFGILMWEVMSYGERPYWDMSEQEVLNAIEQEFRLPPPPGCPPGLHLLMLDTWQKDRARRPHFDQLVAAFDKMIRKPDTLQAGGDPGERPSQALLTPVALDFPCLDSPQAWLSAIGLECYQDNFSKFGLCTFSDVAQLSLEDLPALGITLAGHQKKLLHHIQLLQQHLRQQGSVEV

[6] = target: CDKL1 (Homo sapiens, UniProt Q00532)
[7] = target: PRKCH (Homo sapiens, UniProt P24723)
[8] = target: ACVR2B (Homo sapiens, UniProt Q13705)
[9] = target: T3, EPHB2 (Homo sapiens, UniProt P29323)
T3 sequence (P29323 1-1055): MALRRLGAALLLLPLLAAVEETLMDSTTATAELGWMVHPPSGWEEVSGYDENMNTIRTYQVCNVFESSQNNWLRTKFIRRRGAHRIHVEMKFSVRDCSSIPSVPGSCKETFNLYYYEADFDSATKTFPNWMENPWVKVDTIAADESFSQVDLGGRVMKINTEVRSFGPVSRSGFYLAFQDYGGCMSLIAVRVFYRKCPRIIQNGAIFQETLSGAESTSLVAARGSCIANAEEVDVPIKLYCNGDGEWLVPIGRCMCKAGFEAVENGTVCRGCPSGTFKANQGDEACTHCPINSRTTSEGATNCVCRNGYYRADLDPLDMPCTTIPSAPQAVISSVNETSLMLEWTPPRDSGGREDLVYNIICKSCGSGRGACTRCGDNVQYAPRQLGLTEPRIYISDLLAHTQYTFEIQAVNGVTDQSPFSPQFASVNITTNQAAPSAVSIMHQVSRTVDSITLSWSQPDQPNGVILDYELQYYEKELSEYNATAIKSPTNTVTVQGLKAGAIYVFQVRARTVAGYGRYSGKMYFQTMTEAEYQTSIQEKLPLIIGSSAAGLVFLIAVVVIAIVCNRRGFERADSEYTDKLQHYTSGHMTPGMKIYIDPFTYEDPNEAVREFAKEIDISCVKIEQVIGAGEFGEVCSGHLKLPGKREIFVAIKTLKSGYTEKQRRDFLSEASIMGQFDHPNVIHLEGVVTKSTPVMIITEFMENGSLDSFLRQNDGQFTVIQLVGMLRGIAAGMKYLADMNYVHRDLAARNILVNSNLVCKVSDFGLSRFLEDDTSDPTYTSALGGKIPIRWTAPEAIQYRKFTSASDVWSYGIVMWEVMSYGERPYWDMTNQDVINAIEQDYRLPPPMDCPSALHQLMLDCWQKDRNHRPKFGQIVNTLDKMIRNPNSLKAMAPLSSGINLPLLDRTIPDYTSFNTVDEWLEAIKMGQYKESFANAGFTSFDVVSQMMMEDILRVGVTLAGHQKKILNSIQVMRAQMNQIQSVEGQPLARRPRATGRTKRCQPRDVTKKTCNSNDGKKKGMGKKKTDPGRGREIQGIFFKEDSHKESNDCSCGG

[10] = read-out: Niraparib (MK-4827) / %Ctrl @ 10000nM
[11] = read-out: Olaparib / %Ctrl @ 10000nM
[12] = read-out: Rucaparib / %Ctrl @ 10000nM, binding competition, % of control
[13] = read-out: Talazoparib (BMN 673) / %Ctrl @ 10000nM

Sequence of PRKCH (P24723 whole entry): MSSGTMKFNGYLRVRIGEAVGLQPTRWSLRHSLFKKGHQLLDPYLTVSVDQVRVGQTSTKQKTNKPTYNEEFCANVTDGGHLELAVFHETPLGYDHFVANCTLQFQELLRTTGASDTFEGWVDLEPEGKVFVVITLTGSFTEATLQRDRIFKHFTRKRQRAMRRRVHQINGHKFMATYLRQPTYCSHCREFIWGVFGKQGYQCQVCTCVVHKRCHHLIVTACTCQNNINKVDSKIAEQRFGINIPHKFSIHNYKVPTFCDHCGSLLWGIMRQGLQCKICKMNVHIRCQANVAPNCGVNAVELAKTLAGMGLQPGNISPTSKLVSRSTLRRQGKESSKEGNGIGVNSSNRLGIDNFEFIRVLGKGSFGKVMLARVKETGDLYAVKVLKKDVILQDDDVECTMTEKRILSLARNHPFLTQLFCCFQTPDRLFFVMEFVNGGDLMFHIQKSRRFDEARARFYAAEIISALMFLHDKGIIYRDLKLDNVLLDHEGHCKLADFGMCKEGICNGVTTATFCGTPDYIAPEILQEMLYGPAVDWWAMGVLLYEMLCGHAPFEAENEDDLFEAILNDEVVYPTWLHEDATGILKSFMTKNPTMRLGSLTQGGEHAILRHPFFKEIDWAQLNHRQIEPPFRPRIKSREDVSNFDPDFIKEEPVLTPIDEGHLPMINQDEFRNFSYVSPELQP
Sequence of CDKL1 (Q00532 whole entry): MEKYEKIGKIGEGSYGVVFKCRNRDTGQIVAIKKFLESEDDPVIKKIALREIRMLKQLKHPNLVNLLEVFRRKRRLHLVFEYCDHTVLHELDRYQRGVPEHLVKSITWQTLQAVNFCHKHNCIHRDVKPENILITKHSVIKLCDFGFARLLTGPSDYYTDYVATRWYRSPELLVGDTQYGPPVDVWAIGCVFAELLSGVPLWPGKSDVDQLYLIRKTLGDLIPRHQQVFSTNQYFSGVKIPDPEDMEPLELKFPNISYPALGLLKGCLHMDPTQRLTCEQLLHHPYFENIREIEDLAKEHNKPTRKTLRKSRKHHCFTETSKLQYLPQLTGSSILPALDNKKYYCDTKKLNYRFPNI
T1 sequence (Q00537 whole entry): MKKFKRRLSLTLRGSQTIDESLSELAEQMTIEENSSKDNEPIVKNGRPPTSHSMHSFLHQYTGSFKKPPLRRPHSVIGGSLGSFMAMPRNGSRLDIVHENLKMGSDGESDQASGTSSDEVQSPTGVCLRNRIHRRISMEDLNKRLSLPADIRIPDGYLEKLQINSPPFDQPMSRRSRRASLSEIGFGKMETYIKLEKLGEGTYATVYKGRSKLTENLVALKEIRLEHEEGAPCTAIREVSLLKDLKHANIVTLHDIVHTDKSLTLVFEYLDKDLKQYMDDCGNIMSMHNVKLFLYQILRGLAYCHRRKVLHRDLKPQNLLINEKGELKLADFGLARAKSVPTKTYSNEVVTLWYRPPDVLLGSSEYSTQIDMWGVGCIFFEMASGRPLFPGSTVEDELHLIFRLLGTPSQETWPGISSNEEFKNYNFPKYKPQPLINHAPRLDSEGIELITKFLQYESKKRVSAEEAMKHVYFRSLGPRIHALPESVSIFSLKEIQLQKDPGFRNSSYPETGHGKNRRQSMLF
Sequence of ACVR2B (Q13705 whole entry): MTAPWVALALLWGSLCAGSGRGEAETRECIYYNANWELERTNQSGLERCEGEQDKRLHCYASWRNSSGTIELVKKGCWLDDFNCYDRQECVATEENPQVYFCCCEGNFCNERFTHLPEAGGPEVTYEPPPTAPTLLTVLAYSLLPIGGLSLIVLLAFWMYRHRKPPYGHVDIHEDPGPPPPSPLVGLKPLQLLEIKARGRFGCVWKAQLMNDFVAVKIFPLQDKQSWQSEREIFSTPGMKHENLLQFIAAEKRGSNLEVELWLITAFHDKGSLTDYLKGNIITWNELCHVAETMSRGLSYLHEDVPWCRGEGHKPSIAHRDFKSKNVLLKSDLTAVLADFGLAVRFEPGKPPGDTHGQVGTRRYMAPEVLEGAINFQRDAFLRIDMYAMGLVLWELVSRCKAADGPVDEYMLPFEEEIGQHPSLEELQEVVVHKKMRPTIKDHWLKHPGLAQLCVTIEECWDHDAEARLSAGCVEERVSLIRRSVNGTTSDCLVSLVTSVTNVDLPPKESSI
Sequence of CAMK1D (Q8IU85 whole entry): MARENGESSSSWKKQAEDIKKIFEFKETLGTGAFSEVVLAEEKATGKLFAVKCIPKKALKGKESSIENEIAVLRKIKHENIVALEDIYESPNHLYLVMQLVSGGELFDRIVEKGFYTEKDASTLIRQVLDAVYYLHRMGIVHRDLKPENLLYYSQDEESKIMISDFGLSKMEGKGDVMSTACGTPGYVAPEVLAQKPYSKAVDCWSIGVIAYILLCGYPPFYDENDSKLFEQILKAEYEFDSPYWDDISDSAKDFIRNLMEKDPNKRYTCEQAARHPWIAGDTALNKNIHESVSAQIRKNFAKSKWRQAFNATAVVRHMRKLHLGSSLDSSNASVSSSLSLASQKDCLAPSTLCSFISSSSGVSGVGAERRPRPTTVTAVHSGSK
Sequence of CDK7 (P50613 whole entry): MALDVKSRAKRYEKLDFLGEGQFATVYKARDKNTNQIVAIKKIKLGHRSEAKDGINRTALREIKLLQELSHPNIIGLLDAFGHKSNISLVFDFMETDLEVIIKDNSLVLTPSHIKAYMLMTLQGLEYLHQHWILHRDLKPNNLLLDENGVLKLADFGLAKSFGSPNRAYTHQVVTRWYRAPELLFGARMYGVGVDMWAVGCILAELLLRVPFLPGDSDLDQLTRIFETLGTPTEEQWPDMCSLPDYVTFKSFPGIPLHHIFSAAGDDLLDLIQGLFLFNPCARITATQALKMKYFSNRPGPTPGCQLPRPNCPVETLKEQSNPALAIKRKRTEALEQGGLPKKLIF
Sequence of VRK2 (Q86Y07 whole entry): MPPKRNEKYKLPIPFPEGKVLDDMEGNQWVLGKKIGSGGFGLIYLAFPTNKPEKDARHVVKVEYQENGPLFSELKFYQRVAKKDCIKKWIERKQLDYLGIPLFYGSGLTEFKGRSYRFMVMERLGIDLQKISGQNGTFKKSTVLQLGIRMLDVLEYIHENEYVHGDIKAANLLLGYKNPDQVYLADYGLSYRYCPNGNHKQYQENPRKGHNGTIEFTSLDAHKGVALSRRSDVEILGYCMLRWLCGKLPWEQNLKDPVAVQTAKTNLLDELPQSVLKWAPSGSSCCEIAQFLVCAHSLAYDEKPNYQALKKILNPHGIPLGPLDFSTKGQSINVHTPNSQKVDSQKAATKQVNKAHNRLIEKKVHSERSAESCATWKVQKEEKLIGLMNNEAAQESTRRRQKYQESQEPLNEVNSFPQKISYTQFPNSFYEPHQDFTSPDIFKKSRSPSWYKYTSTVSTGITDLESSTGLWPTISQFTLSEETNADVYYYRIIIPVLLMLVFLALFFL

For `NC(=O)c1cccc2cn(-c3ccc([C@@H]4CCCNC4)cc3)nc12` [Niraparib], which percent of control binding at 10 µM [1, 10] is on record?
The percent of control binding at 10 µM was 65%.

What about the percent of control binding at 10 µM [2, 10] of the same compound?
The percent of control binding at 10 µM was 73%.

And the percent of control binding at 10 µM [3, 10]?
The percent of control binding at 10 µM was 73%.

What about the percent of control binding at 10 µM [4, 10] of the same compound?
The percent of control binding at 10 µM was 84%.

And the percent of control binding at 10 µM [5, 10]?
The percent of control binding at 10 µM was 34%.

What about the percent of control binding at 10 µM [6, 10] of the same compound?
Its percent of control binding at 10 µM is 94%.

And the percent of control binding at 10 µM [7, 10]?
Its percent of control binding at 10 µM is 85%.

What about the percent of control binding at 10 µM [8, 10] of the same compound?
Its percent of control binding at 10 µM is 100%.

What about the percent of control binding at 10 µM [9, 10] of the same compound?
Its percent of control binding at 10 µM is 75%.

`O=C(c1cc(Cc2n[nH]c(=O)c3ccccc23)ccc1F)N1CCN(C(=O)C2CC2)CC1` [Olaparib] was tested. Which percent of control binding at 10 µM [1, 11] did it give?
The percent of control binding at 10 µM was 99%.

And the percent of control binding at 10 µM [2, 11]?
The percent of control binding at 10 µM was 89%.

What about the percent of control binding at 10 µM [3, 11] of the same compound?
The percent of control binding at 10 µM was 100%.

What about the percent of control binding at 10 µM [4, 11] of the same compound?
Its percent of control binding at 10 µM is 94%.

And the percent of control binding at 10 µM [5, 11]?
Its percent of control binding at 10 µM is 81%.

And the percent of control binding at 10 µM [6, 11]?
The percent of control binding at 10 µM was 99%.

And the percent of control binding at 10 µM [7, 11]?
The percent of control binding at 10 µM was 94%.

What about the percent of control binding at 10 µM [8, 11] of the same compound?
Its percent of control binding at 10 µM is 100%.

What about the percent of control binding at 10 µM [9, 11] of the same compound?
The percent of control binding at 10 µM was 95%.

`CNCc1ccc(-c2[nH]c3cc(F)cc4c3c2CCNC4=O)cc1` [Rucaparib] was tested. Which percent of control binding at 10 µM [1, 12] did it give?
Its percent of control binding at 10 µM is 95%.

What about the percent of control binding at 10 µM [2, 12] of the same compound?
The percent of control binding at 10 µM was 71%.

And the percent of control binding at 10 µM [3, 12]?
The percent of control binding at 10 µM was 54%.

What about the percent of control binding at 10 µM [4, 12] of the same compound?
The percent of control binding at 10 µM was 86%.

And the percent of control binding at 10 µM [5, 12]?
Its percent of control binding at 10 µM is 50%.

What about the percent of control binding at 10 µM [6, 12] of the same compound?
Its percent of control binding at 10 µM is 84%.

What about the percent of control binding at 10 µM [7, 12] of the same compound?
Its percent of control binding at 10 µM is 94%.

And the percent of control binding at 10 µM [8, 12]?
Its percent of control binding at 10 µM is 100%.

And the percent of control binding at 10 µM [9, 12]?
Its percent of control binding at 10 µM is 91%.

What does the source list for `Cn1ncnc1[C@H]1c2n[nH]c(=O)c3cc(F)cc(c23)N[C@@H]1c1ccc(F)cc1` [Talazoparib]?
percent of control binding at 10 µM [1, 13]: 100%; percent of control binding at 10 µM [2, 13]: 100%; percent of control binding at 10 µM [3, 13]: 94%; percent of control binding at 10 µM [4, 13]: 91%; percent of control binding at 10 µM [5, 13]: 84%; percent of control binding at 10 µM [6, 13]: 49%; percent of control binding at 10 µM [7, 13]: 98%; percent of control binding at 10 µM [8, 13]: 100%; percent of control binding at 10 µM [9, 13]: 89%
